Measurements reported in article PMC9032693, “Biological Evaluation of New Thienopyridinium and Thienopyrimidinium Derivatives as Human Choline Kinase Inhibitors” (Pharmaceutics, 2022).

What was measured:
HeLa [1] = assay: Cell cycle analysis by flow cytometry; format: cell-based, human; details: 1.0 µM, 48 and 72 h
Protocol: (§1) Three different cell lines (MDA-MB-231, A549, and HeLa) were used to evaluate the effect of compound Ff-35 on the cell cycle. Briefly, cells were treated with the test compound for 48 and 72 h. After this incubation period the cells were trypsinized, centrifuged, and fixed by adding cold ethanol (70% v/v). Cell cycles are then acquired through a cytofluorimeter (Beckman Coulter Cytomics FC500, Milano, Italy) and subsequently analyzed using MultiCycle software (Phoenix Flow Systems, San Diego, CA, USA).

A549 [2] = assay: Cell cycle analysis by flow cytometry; format: cell-based, human; details: A549, 1.0 µM, 48 and 72 h
Protocol: as §1

MDA-MB-231 [3] = assay: Cell cycle analysis by flow cytometry; format: cell-based, human; details: MDA-MB-231, 1.0 µM, 48 and 72 h
Protocol: as §1

HepG2 cells = assay: Choline uptake assay ([methyl-14C]choline); format: cell-based, human; details: HepG2, 24 h
Protocol: Choline uptake was assessed as previously reported. Briefly, HepG2 cells (200,000 cells/well) were incubated for 24 h at 37 °C with different concentrations of CKα1 inhibitors. Then, cells were exposed to [methyl-^14C]choline ([…], 31 Ci/mol) for 5 min at 37 °C. The reaction was stopped by two washes with ice-cold PBS containing 580 μM choline. The cells were solubilized in NaOH 0.1 N and the total amount of radiolabel taken up by the cells was measured by liquid scintillation using a Beckman 6000-TA counter (Madrid, Spain).

HeLa [4] = assay: Apoptosis by annexin-V-FITC/PI flow cytometry; format: cell-based, human; details: 1 and 5 µM, 72 h
Protocol: (§2) MDA-MB-231, A549, and HeLa cells were treated with compound Ff-35 for 72 h and then stained using a commercial kit (Annexin-V-Fluos, Roche Diagnostics, Milano, Italy) containing Annexin-V conjugated with fluorescein isothiocyanate and Propidium iodide (PI). All the procedures were executed according to manufacturer’s instructions. Apoptotic cells were then analyzed through a cytofluorimeter (Beckman Coulter Cytomics FC500).

A549 [5] = assay: Apoptosis by annexin-V-FITC/PI flow cytometry; format: cell-based, human; details: A549, 1 and 5 µM, 72 h
Protocol: as §2

MDA-MB-231 [6] = assay: Apoptosis by annexin-V-FITC/PI flow cytometry; format: cell-based, human; details: MDA-MB-231, 1 and 5 µM, 72 h
Protocol: as §2

CKα1 = biological target: T1, CKα1 (Homo sapiens, UniProt P35790); assay: Choline kinase assay ([methyl-14C]choline into PCho, purified enzyme); format: biochemical; details: end-point assay
T1 construct: an N-terminally His-tagged truncated form of CKα1 (Δ75–457) was cloned into a pET-28a vector; His tag (N); made in house; host or cells: E. coli BL21 (DE3) Star
T1 sequence (P35790 75-457): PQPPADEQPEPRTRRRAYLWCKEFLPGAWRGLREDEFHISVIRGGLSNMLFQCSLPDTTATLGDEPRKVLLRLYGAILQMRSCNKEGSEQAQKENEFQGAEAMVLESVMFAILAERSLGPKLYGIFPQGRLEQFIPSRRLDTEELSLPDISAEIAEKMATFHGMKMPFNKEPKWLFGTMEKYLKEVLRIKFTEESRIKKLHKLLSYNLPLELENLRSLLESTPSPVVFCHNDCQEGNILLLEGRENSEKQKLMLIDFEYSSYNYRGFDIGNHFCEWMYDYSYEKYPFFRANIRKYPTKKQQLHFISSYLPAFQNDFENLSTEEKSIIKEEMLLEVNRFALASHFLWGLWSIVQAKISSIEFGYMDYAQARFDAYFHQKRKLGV

## [Br-].[Br-].c1cc2c(N3CCCCCC3)nc[n+](Cc3ccc(CCCCc4ccc(C[n+]5cnc(N6CCCCCC6)c6ccsc65)cc4)cc3)c2s1 [Ff-35]
HeLa [1]
  effect on cell cycle: notable increase in the G1 phase accompanied by a reduction in the S phase
A549 [2]
  effect on cell cycle: notable increase in the G1 phase accompanied by a reduction in the S phase
MDA-MB-231 [3]
  effect on cell cycle: notable increase in the G1 phase accompanied by a reduction in the S phase
HepG2 cells; 0.1 μM
  % Inhibition Choline Uptake at 0.1 μM: 35.64 ± 0.7%
HepG2 cells; 0.5 μM
  % Inhibition Choline Uptake at 0.5 μM: 84.99 ± 1.3%
HepG2 cells; 2 μM
  % Inhibition Choline Uptake at 2 μM: 96.62 ± 0.316%
HeLa [4]
  apoptotic cells: significant increase in apoptotic cells in a concentration-dependent manner
A549 [5]
  apoptotic cells: significant increase in apoptotic cells in a concentration-dependent manner
MDA-MB-231 [6]
  apoptotic cells: significant increase in apoptotic cells in a concentration-dependent manner
CKα1; purified CKα1, inhibitor 10 µM
  % Inhibition at 10 µM: 90.55%
CKα1; purified CKα1, inhibitor 30 µM
  % Inhibition at 30 µM: 97.80%
